These results are taken from ChEMBL document CHEMBL1150207, “Cytotoxicities of some flavonoid analogues” (1991).

≈ marks a conversion by molar mass, not a printed value.

Holding throughout (type): functional
One assay has as its system A549. Briefly: Cytotoxicity against human A549 cells after 6 days by MTT assay. To be noted: A549, 144 h, read-out: ED50 (the source's name). In general terms: Formazan colour is commonly taken as a measure of viable cells.
In another assay the test system is MCF7. Briefly: Cytotoxicity against human MCF7 cells after 6 days by MTT assay. To be noted: MCF7, 144 h, read-out: ED50 (the source's name).
The test system of the next assay is HT-29. Briefly: Cytotoxicity against human HT-29 cells after 6 days by MTT assay. To be noted: HT-29, 144 h, read-out: ED50 (the source's name).
The next assay has as its system SK-MEL. Briefly: Cytotoxicity against human SK-MEL cells after 6 days by MTT assay. To be noted: 144 h, read-out: ED50 (the source's name).
In the next assay the test system is Malme-3M. Briefly: Cytotoxicity against human MALME-3M cells after 6 days by MTT assay. The note with it: 144 h, read-out: ED50 (the source's name).

On to `O=c1cc(-c2cccc(O)c2)oc2c(O)c(O)ccc12`, for which the EC50 in the assay on A549 came out at 4.65 µg/mL (≈ 17.2 µM); with MCF7 it was 3.71 µg/mL (≈ 13.7 µM); in the assay with HT-29, 4.18 µg/mL (≈ 15.5 µM); with SK-MEL, 3.66 µg/mL (≈ 13.5 µM); with Malme-3M, 4.8 µg/mL (≈ 17.8 µM).

Consider `O=c1cc(-c2cccc(O)c2)oc2cc(O)ccc12`, for which the EC50 was greater than 25 µg/mL in the assay with A549; greater than 25 µg/mL in the assay with MCF7; greater than 25 µg/mL with HT-29; 5.11 µg/mL (≈ 20.1 µM) with SK-MEL; greater than 25 µg/mL in the assay on Malme-3M.

As to `COc1cc(-c2cc(=O)c3c(O)cccc3o2)cc(OC)c1O`, the EC50 in the assay with A549 was 0.74 µg/mL (≈ 2.35 µM); in the assay with MCF7, 0.51 µg/mL (≈ 1.62 µM); in the assay with HT-29 it was greater than 25 µg/mL; in the assay on SK-MEL, greater than 25 µg/mL; with Malme-3M it was greater than 25 µg/mL.

As for `CC(C)(C)[Si](C)(C)Oc1ccc(-c2cc(=O)c3ccc(O)cc3o2)cc1`, the EC50 in the assay on A549 was 6.45 µg/mL (≈ 17.5 µM); with MCF7, 4.66 µg/mL (≈ 12.6 µM); in the assay on HT-29, 3.61 µg/mL (≈ 9.8 µM); in the assay with SK-MEL, 5.64 µg/mL (≈ 15.3 µM); in the assay on Malme-3M it was greater than 10 µg/mL.

Take `COc1cc(-c2cc(=O)c3ccc(O)cc3o2)cc(OC)c1O[Si](C)(C)C(C)(C)C`: the EC50 in the assay with A549 is 5.3 µg/mL (≈ 12.4 µM); with MCF7, 4.47 µg/mL (≈ 10.4 µM); in the assay with HT-29, 1 µg/mL (≈ 2.33 µM); in the assay on SK-MEL, greater than 25 µg/mL; in the assay on Malme-3M it was greater than 25 µg/mL.

Take `COc1cc(-c2cc(=O)c3cc(O)ccc3o2)cc(OC)c1O`: the EC50 was greater than 25 µg/mL in the assay on A549; greater than 25 µg/mL with MCF7; greater than 25 µg/mL with HT-29; 5.68 µg/mL (≈ 18.1 µM) in the assay with SK-MEL; greater than 25 µg/mL in the assay on Malme-3M.

`COc1cc(-c2cc(=O)c3ccc(O)cc3o2)cc(OC)c1O`: the EC50 with A549 is greater than 25 µg/mL; in the assay on MCF7, greater than 25 µg/mL; in the assay with HT-29, 6.5 µg/mL (≈ 20.7 µM); in the assay with SK-MEL, greater than 25 µg/mL; in the assay with Malme-3M it was greater than 25 µg/mL.

For `COc1ccc2oc(-c3cc(OC)c(OC)c(OC)c3)cc(=O)c2c1`, the EC50 in the assay with A549, in the assay on MCF7, with HT-29, with SK-MEL and with Malme-3M was greater than 25 µg/mL throughout.

As to `COc1cc(-c2cc(=O)c3ccc(OC(C)=O)cc3o2)cc(OC)c1O`, the EC50 in the assay on A549, in the assay with MCF7, in the assay on HT-29, with SK-MEL and in the assay with Malme-3M was greater than 25 µg/mL each time.

Turning to `COc1cc(-c2cc(=O)c3ccc(OC(C)=O)c(OC(C)=O)c3o2)cc(OC)c1O[Si](C)(C)C(C)(C)C`, the EC50 in the assay on A549 is greater than 25 µg/mL; in the assay on MCF7 it was greater than 25 µg/mL; with HT-29, greater than 25 µg/mL; with SK-MEL, 0.14 µg/mL (≈ 0.265 µM); in the assay on Malme-3M it was 0.31 µg/mL (≈ 0.586 µM).

For `COc1cc(-c2cc(=O)c3ccc(O)c(O)c3o2)cc(OC)c1O`, the EC50 in the assay with A549 was greater than 25 µg/mL; in the assay on MCF7 it was greater than 25 µg/mL; in the assay with HT-29, 5.12 µg/mL (≈ 15.5 µM); in the assay on SK-MEL, 6.33 µg/mL (≈ 19.2 µM); in the assay on Malme-3M, greater than 25 µg/mL.

For the compound `O=c1cc(-c2cccc(O)c2)oc2ccc(O)cc12`, the EC50 in the assay with A549, in the assay on MCF7, in the assay on HT-29, with SK-MEL and in the assay with Malme-3M was greater than 25 µg/mL throughout.

With `COc1cc(-c2cc(=O)c3ccc(O)c(O)c3o2)cc(OC)c1O[Si](C)(C)C(C)(C)C`, the EC50 in the assay on A549 is 3.31 µg/mL (≈ 7.45 µM); with MCF7 it was 0.31 µg/mL (≈ 0.697 µM); in the assay with HT-29 it was 0.34 µg/mL (≈ 0.765 µM); with SK-MEL it was 0.11 µg/mL (≈ 0.247 µM); in the assay on Malme-3M it was 0.2 µg/mL (≈ 0.45 µM).

As for `O=c1cc(-c2cccc(O)c2)oc2cccc(O)c12`, the EC50 with A549 is 3.24 µg/mL (≈ 12.7 µM); in the assay with MCF7, 6.93 µg/mL (≈ 27.3 µM); in the assay on HT-29, 3.47 µg/mL (≈ 13.6 µM); in the assay with SK-MEL, 3.09 µg/mL (≈ 12.2 µM); in the assay on Malme-3M it was greater than 10 µg/mL.

Regarding `COc1cc(-c2cc(=O)c3ccc(OC(C)=O)cc3o2)cc(OC)c1O[Si](C)(C)C(C)(C)C`, the EC50 stood at 2.9 µg/mL (≈ 6.16 µM) with A549; 4.19 µg/mL (≈ 8.9 µM) with MCF7; 1.94 µg/mL (≈ 4.12 µM) in the assay on HT-29; 0.8 µg/mL (≈ 1.7 µM) in the assay with SK-MEL; 2.95 µg/mL (≈ 6.27 µM) in the assay with Malme-3M.

For `COc1ccc2c(=O)cc(-c3cc(OC)c(OC)c(OC)c3)oc2c1`, the EC50 in the assay on A549, in the assay on MCF7, in the assay with HT-29, with SK-MEL and in the assay with Malme-3M was greater than 25 µg/mL throughout.
